What all share (assay type): cell-based
Experiment [1] deals with T1, human TLR7 (Homo sapiens, UniProt Q9NYK1).
T1 construct: host or cells: HEK-Blue cells (HEK293-derived reporter line)
T1 sequence (Q9NYK1 27-1049): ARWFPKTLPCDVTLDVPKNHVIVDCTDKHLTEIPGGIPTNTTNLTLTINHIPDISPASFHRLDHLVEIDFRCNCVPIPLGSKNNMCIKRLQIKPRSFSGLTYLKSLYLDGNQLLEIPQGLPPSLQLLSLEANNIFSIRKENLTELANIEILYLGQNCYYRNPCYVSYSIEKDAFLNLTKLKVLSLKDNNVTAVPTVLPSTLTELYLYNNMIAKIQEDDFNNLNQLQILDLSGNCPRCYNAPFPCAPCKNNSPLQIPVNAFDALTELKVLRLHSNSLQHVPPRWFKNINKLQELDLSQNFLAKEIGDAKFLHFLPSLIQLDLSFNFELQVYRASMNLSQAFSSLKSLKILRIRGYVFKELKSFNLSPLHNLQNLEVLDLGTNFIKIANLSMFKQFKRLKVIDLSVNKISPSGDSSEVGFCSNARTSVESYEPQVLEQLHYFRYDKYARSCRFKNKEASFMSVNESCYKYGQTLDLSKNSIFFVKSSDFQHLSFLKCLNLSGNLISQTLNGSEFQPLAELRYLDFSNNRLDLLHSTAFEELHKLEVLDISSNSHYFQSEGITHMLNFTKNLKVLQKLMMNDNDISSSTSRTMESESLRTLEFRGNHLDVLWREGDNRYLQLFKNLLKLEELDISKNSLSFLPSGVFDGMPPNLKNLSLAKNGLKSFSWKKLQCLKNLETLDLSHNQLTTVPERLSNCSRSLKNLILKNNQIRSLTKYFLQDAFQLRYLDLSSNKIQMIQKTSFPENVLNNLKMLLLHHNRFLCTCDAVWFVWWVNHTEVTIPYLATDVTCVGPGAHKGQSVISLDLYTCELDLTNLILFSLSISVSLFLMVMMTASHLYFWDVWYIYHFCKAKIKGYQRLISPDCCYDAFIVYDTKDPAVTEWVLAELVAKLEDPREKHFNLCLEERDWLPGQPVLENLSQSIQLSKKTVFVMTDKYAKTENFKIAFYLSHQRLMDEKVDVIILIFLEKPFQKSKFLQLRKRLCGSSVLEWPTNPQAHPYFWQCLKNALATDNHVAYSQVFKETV
Put plainly: TLR7 inhibition reporter assay (HEK-Blue cells, SEAP reporter, gardiquimod stimulation). Particulars: HEK-Blue cells overexpressing human TLR7, SEAP reporter, gardiquimod 7.5 μM. A digest of the protocol: (§1)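 Cells seeded per well (15000 TLR7, 20,000 TLR8, 25,000 TLR9); compound added over 0.05 nM–50 μM for 30 min at room temperature; agonist added (TLR7 gardiquimod 7.5 μM, TLR8 R848 15.9 μM, TLR9 ODN2006 5 nM); 22 h at 37 °C; SEAP measured; percent inhibition calculated.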

In experiment [2] the target is T2, human TLR9 (Homo sapiens, UniProt Q9NR96).
T2 construct: host or cells: HEK-Blue cells (HEK293-derived reporter line)
T2 sequence (Q9NR96 26-1032): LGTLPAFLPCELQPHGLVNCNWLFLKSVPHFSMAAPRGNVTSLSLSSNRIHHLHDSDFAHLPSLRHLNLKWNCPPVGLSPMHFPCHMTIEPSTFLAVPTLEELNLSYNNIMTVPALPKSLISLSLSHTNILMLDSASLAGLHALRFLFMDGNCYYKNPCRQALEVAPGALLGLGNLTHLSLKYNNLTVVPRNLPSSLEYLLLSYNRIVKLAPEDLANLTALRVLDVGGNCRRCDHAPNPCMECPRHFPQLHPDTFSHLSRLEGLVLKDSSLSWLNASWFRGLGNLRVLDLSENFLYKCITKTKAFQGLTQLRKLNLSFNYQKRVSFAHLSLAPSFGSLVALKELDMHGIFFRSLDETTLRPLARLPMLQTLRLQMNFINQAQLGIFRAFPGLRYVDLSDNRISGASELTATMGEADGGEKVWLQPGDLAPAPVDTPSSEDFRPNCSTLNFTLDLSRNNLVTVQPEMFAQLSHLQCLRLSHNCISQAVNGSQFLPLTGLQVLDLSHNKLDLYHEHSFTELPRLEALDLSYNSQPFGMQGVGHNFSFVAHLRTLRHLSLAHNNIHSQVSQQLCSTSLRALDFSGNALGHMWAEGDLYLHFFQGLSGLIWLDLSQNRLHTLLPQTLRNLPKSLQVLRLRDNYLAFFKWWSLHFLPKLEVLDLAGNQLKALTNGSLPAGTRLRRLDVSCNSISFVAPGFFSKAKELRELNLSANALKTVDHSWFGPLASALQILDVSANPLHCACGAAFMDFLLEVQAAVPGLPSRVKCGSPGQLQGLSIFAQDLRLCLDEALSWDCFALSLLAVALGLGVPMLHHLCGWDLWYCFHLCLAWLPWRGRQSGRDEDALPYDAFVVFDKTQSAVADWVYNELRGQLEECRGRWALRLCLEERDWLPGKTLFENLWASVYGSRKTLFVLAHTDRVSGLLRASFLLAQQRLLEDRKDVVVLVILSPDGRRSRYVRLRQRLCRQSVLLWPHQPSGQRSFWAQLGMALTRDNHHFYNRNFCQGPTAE
Put plainly: TLR9 inhibition reporter assay (HEK-Blue cells, SEAP reporter, ODN2006 stimulation). The conditions noted are these: HEK-Blue cells overexpressing human TLR9, SEAP reporter, ODN2006 5 nM. A digest of the protocol: as §1
In general terms: A reporter such as luciferase makes a cellular process visible.

Experiment [3] addresses T3, human TLR8 (Homo sapiens, UniProt Q9NR97).
T3 construct: host or cells: HEK-Blue cells (HEK293-derived reporter line)
T3 sequence (Q9NR97 27-1041): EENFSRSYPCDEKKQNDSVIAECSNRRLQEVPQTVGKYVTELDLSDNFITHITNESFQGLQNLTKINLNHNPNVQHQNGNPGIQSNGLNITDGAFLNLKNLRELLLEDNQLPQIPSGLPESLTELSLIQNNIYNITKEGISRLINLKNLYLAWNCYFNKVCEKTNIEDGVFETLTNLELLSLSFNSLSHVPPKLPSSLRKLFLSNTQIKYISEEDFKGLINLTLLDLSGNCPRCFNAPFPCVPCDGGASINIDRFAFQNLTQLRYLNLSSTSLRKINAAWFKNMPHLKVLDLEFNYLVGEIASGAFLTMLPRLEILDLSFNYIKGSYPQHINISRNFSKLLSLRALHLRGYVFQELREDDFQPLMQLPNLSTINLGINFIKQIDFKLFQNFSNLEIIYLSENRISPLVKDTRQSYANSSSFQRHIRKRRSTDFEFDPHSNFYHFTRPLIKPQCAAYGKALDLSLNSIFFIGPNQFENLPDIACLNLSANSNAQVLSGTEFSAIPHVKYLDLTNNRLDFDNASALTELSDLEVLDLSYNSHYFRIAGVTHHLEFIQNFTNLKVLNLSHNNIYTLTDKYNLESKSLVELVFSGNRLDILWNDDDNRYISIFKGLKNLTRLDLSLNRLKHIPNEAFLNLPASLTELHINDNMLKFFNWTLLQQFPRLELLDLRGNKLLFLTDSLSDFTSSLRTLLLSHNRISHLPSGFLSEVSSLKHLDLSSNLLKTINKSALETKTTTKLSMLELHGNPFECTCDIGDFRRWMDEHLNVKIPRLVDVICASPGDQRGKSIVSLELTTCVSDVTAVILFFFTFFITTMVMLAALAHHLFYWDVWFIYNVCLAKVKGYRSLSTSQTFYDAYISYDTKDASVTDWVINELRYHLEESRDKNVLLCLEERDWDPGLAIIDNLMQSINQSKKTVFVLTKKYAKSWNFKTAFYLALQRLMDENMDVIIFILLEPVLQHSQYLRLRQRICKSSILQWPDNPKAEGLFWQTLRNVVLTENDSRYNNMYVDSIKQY
In words: TLR8 inhibition reporter assay (HEK-Blue cells, SEAP reporter, R848 stimulation). The conditions noted are these: HEK-Blue cells overexpressing human TLR8, SEAP reporter, R848 15.9 μM. A digest of the protocol:
as §1

Bounds are passed on as bounds.

A word on the IC50: it is the concentration at which inhibition is half-maximal. `CC(C)c1c(-c2ccnc3[nH]ncc23)[nH]c2ccc(C3CCN(C(=O)Cc4c[nH]cn4)CC3)cc12` [Example 612, 2-(1H-imidazol-4-yl)-1-(4-(3-isopropyl-2-(1H-pyrazolo[3,4-b]pyridin-4-yl)-1H-indol-5-yl)piperidin-1-yl)ethan-1-one]: the IC50 in experiment [1] was less than 100 nM; in experiment [2] it was 1000 to 50000 nM; in experiment [3], less than 100 nM.

In the case of `Cc1cc2nc(-c3[nH]c4ccc(C5CCNCC5)cc4c3C(C)C)c(F)cn2n1` [Example 148, 6-fluoro-5-(3-isopropyl-5-(piperidin-4-yl)-1H-indol-2-yl)-2-methylpyrazolo[1,5-a]pyrimidine], the IC50 was less than 100 nM in experiment [1], 1000 to 50000 nM in experiment [2] and 100 to 1000 nM in experiment [3].

For the compound `Cc1nc2cc(-c3[nH]c4ccc(C5CCN(CC(=O)N(C)C)CC5)cc4c3C(C)C)cc(C)c2o1` [Example 338, 2-(4-(2-(2,7-dimethylbenzo [d]oxazol-5-yl)-3-isopropyl-1H-indol-5-yl)piperidin-1-yl)-N,N-dimethylacetamide], the results for the IC50 in experiment [1], in experiment [2] and in experiment [3] were less than 100 nM, 1000 to 50000 nM and 100 to 1000 nM, respectively.

Take `Cc1cn2cc(-c3[nH]c4ccc(C5CCN(Cc6c[nH]cn6)CC5)cc4c3C(C)C)ccc2n1` [Example 936, 6-(5-(1-((1H-imidazol-4-yl)methyl)piperidin-4-yl)-3-isopropyl-1H-indol-2-yl)-2-methylimidazo[1,2-a]pyridine]: the IC50 in experiment [1] is less than 100 nM; in experiment [2], less than 100 nM; in experiment [3] it was 100 to 1000 nM.

As for `CC(C)c1c(-c2cnc3[nH]ccc3c2)[nH]c2ccc(C3CCN(C4CCN(C)CC4)CC3)cc12` [Example 802, 5-(3-isopropyl-5-(1′-methyl-[1,4′-bipiperidin]-4-yl)-1H-indol-2-yl)-1H-pyrrolo[2,3-b]pyridine], the IC50 in experiment [1], in experiment [2] and in experiment [3] was 100 to 1000 nM each time.

Turning to `CNC(=O)CN1CCC(c2ccc3[nH]c(-c4nn5ncnc5c(C)c4C)c(C(C)C)c3c2)CC1` [Example 279, 2-(4-(2-(7,8-dimethyl-[1,2,4]triazolo[1,5-b]pyridazin-6-yl)-3-isopropyl-1H-indol-5-yl)piperidin-1-yl)-N-methylacetamide], the IC50 in experiment [1] was less than 100 nM; in experiment [2] it was 1000 to 50000 nM; in experiment [3] it was less than 100 nM.

On to `CNC(=O)CN1CCC(c2ccc3[nH]c(-c4ccc5c(cnn5C)c4C)c(C(C)C)c3c2)CC1` [Example 365, 2-(4-(2-(1,4-dimethyl-1H-indazol-5-yl)-3-isopropyl-1H-indol-5-yl)piperidin-1-yl)-N-methylacetamide], for which the values for the IC50 in experiment [1], in experiment [2] and in experiment [3] were less than 100 nM, more than 50000 nM and 100 to 1000 nM, respectively.

For the compound `Cc1c(-c2[nH]c3ccc(C4CCN(CC(=O)N(C)C)CC4)cc3c2C(C)C)ccc2nnnn12` [Example 308, 2-(4-(3-isopropyl-2-(5-methyltetrazolo[1,5-a]pyridin-6-yl)-1H-indol-5-yl)piperidin-1-yl)-N,N-dimethylacetamide], the IC50 was 100 to 1000 nM in experiment [1], 1000 to 50000 nM in experiment [2] and less than 100 nM in experiment [3].

Regarding `CC(C)c1c(-c2ccnc3[nH]ncc23)[nH]c2ccc(C3CCN(C4CCNCC4O)CC3)cc12` (stereo not drawn) [Example 804, 4-(3-isopropyl-2-(1H-pyrazolo[3,4-b]pyridin-4-yl)-1H-indol-5-yl)-[1,4′-bipiperidin]-3′-ol], the IC50 in experiment [1] was less than 100 nM; in experiment [2], 100 to 1000 nM; in experiment [3], less than 100 nM.

Consider `CCc1c(-c2ccnc3[nH]cc(C(C)C)c23)[nH]c2ccc(C3CCNCC3)cc12` [Example 221, 4-(3-ethyl-5-(piperidin-4-yl)-1H-indol-2-yl)-3-isopropyl-1H-pyrrolo[2,3-b]pyridine], for which the IC50 in experiment [1] lay in the range of 100 to 1000 nM; in experiment [2], 100 to 1000 nM; in experiment [3], 1000 to 50000 nM.

For the compound `CC(C)c1c(-c2ccnc3[nH]ncc23)[nH]c2ccc(C3CCN(C(=O)CN4CC[C@@H](O)C4)CC3)cc12` [Example 579, (R)-2-(3-hydroxypyrrolidin-1-yl)-1-(4-(3-isopropyl-2-(1H-pyrazolo[3,4-b]pyridin-4-yl)-1H-indol-5-yl)piperidin-1-yl)ethan-1-one], the IC50 was less than 100 nM in experiment [1], 100 to 1000 nM in experiment [2] and less than 100 nM in experiment [3].

`Cc1c(-c2[nH]c3ccc(C4CCN(C(=O)CN(C)C)CC4)cc3c2C(C)C)cn2nnnc2c1C` [Example 468, 2-(dimethylamino)-1-(4-(2-(7,8-dimethyltetrazolo[1,5-a]pyridin-6-yl)-3-isopropyl-1H-indol-5-yl)piperidin-1-yl)ethan-1-one]: the IC50 was less than 100 nM in experiment [1], 1000 to 50000 nM in experiment [2] and less than 100 nM in experiment [3].

Consider `CCc1c(-c2cc3cnn(C)c3cn2)[nH]c2ccc(C3CCNCC3)cc12` [Example 97, 5-(3-ethyl-5-(piperidin-4-yl)-1H-indol-2-yl)-1-methyl-1H-pyrazolo[3,4-c]pyridine], for which the results for the IC50 in experiment [1], in experiment [2] and in experiment [3] were 1000 to 50000 nM, 1000 to 50000 nM and 100 to 1000 nM, respectively.

The values are drawn from patent US11739098B2 (BRISTOL-MYERS SQUIBB COMPANY, priority 2017, dated 2023).
